According to patent US20260028326A1, “COMPOUND BASED ON ISOINDOLINE-SUBSTITUTED GLUTARIMIDE BACKBONE AND USE THEREOF” (GLUETACS THERAPEUTICS (SHANGHAI) CO., LTD., priority 2022, published 2026):

Key:
[1] = Pharmacokinetic study, oral administration, mouse plasma; assay type: in vivo, mice
Protocol: The experimental animals used can be those commonly used in pharmacokinetic experiments, e.g., adult and healthy rodents (e.g., mice, rats (such as Sprague-Dawley (SD) rats), guinea pigs) or non-rodents (rabbits, dogs, and monkeys). In the present disclosure, mice were used as the experimental animals.
The experimental animals were divided into two groups: a control group (for collecting blank plasma) and an orally administered group (dosed at 10 mg/kg or 30 mg/kg). Blood samples were collected at predetermined sampling time points after administration, such as 0.25 h, 0.5 h, 1 h, 2 h, 4 h, 8 h, and 24 h post-dosing. Blank plasma was collected from the control group.
Plasma samples were preprocessed before analysis: 10 μL of 50% acetonitrile and 200 μL of internal standard solution (containing 50 ng/mL dexamethasone in acetonitrile) were added to 10 μL of plasma samples. For the blank control group, the same volume of acetonitrile was added instead of the internal standard. The processed samples were vortexed, centrifuged, and the supernatant was taken for LC-MS/MS injection analysis.
After preparing standard curves and quality control (QC) samples, the concentrations of the compounds in the plasma samples were determined by LC-MS/MS analysis. Based on the plasma concentration data obtained from LC-MS/MS analysis, the pharmacokinetic parameters of the test compounds were calculated using the non-compartmental model in the pharmacokinetic calculation software WinNonlin v8.1.

[2] = target: human Cereblon WT GST-tagged protein (Homo sapiens (Human), UniProt Q96SW2); assay: CRBN-binding affinity, HTRF (CEREBLON BINDING kit)
human Cereblon WT GST-tagged protein, sequence (Q96SW2 whole entry): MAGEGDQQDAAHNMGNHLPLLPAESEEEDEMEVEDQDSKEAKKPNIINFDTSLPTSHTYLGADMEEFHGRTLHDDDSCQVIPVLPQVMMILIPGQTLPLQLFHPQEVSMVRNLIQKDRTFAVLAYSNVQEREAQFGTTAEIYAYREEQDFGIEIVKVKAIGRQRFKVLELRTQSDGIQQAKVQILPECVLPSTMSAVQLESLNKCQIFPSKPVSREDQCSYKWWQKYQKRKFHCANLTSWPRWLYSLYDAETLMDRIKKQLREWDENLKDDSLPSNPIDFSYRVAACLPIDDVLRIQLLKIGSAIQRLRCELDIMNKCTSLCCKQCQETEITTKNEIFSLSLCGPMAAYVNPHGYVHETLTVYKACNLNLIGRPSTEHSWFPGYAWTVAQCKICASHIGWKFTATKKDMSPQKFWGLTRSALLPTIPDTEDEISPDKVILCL
Outline: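 HTRF competition readout: compounds compete with a thalidomide-Re conjugate for GST-tagged wild-type human CRBN detected via Eu-labelled anti-GST antibody. Inhibition rate derived relative to protein-free blank wells.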

[3] = target: IKZF1 protein (Homo sapiens (Human), UniProt Q13422+Q96SW2); assay: Western-blot assay of substrate protein degradation in hPBMC, IKZF1; assay type: cell-based; conditions: hPBMC cells, compound 500 nM, 24 hours, Western blot
IKZF1 protein, sequence (Q13422 whole entry): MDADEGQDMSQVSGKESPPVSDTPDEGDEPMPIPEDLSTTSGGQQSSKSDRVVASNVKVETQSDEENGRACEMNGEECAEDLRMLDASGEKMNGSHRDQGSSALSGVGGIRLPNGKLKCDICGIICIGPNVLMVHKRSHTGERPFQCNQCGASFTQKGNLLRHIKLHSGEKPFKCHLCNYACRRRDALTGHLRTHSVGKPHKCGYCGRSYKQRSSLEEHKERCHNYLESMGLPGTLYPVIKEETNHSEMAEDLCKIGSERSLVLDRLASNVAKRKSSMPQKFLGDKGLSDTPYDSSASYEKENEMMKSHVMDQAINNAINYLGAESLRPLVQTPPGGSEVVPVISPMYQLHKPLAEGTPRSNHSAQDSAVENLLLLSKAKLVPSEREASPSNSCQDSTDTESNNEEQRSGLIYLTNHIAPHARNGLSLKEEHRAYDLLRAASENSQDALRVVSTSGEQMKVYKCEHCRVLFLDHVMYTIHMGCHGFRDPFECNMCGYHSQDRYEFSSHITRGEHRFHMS
IKZF1 protein, sequence (Q96SW2 whole entry): as the sequence (Q96SW2 whole entry) above
IKZF1 protein, sequence (Q16531 whole entry partner): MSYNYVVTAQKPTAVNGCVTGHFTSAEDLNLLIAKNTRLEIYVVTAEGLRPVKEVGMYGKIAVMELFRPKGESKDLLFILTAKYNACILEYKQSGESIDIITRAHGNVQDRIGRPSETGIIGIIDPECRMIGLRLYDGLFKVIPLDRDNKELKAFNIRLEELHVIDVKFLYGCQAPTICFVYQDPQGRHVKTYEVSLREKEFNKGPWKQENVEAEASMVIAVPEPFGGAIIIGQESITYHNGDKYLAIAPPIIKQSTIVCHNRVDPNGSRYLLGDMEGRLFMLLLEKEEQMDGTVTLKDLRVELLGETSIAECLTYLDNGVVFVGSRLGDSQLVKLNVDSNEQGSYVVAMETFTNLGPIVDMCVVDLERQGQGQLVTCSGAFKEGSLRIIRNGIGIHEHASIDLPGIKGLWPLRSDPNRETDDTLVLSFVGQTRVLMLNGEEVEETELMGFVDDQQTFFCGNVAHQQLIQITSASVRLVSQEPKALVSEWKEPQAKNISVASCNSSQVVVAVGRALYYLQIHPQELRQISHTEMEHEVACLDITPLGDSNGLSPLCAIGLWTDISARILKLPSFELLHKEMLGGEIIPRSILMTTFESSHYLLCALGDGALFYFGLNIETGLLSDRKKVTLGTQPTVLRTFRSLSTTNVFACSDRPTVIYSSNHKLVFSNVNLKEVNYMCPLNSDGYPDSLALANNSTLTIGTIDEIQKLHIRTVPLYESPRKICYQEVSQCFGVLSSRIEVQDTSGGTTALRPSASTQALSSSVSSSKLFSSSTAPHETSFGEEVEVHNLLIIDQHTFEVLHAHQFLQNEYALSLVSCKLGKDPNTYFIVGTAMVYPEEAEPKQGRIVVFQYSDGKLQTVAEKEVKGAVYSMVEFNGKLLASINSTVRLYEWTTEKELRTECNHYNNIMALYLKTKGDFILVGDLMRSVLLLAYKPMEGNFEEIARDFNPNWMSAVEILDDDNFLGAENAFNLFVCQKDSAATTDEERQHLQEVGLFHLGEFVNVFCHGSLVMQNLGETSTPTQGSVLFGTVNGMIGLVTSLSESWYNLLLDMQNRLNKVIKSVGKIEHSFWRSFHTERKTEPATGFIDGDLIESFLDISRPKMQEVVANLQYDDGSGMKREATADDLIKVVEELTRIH

[4] = target: IKZF3 protein (Homo sapiens (Human), UniProt Q96SW2+Q9UKT9); assay: Western-blot assay of substrate protein degradation in hPBMC, IKZF3; assay type: cell-based; conditions: hPBMC cells, compound 500 nM, 24 hours, Western blot
IKZF3 protein, sequence (Q9UKT9 whole entry): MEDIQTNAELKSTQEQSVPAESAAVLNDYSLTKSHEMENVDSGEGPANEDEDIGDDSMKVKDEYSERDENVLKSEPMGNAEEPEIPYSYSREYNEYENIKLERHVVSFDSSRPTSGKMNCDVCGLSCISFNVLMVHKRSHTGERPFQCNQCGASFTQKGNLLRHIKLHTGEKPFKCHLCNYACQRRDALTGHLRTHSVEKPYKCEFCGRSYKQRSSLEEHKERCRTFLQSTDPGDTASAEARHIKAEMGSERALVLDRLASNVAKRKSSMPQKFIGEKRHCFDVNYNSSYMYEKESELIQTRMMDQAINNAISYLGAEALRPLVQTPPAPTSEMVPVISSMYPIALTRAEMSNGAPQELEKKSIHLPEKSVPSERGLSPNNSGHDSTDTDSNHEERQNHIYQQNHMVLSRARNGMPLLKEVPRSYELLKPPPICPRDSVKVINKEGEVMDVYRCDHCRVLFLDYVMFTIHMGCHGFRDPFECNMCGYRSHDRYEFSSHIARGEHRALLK
IKZF3 protein, sequence (Q96SW2 whole entry): as the sequence (Q96SW2 whole entry) above
IKZF3 protein, sequence (Q16531 whole entry partner): as the sequence (Q16531 whole entry partner) above

[5] = target: GSPT1 protein (Homo sapiens (Human), UniProt P15170+Q96SW2); assay: Western-blot assay of substrate protein degradation in hPBMC, GSPT1; assay type: cell-based; conditions: hPBMC cells, compound 500 nM, 24 hours, Western blot
GSPT1 protein, sequence (P15170 whole entry): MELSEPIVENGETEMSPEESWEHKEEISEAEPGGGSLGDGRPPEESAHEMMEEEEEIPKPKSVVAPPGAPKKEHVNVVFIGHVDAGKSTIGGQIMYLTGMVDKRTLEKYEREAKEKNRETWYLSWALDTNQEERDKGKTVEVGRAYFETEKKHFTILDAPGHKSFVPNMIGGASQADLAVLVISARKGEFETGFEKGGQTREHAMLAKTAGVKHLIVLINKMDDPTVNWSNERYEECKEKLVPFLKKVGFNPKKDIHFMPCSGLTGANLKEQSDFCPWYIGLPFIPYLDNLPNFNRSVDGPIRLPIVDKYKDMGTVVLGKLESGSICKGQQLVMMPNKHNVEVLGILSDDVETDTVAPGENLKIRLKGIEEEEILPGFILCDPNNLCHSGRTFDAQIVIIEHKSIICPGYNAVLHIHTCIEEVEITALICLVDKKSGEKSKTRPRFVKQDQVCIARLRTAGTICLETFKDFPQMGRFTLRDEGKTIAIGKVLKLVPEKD
GSPT1 protein, sequence (Q96SW2 whole entry): as the sequence (Q96SW2 whole entry) above
GSPT1 protein, sequence (Q16531 whole entry partner): as the sequence (Q16531 whole entry partner) above

[6] = tested on: Mino cells; assay: Tumor cell proliferation IC50 (CCK-8), Mino; conditions: Homo sapiens, 72 h, read-out: IC50 for inhibiting the proliferation of tumor cells, Mino;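 further: cell viability assessed with CCK-8 reagent after compound exposure, IC50 derived from plotted growth inhibition curves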
[7] = tested on: MM.1S cells; assay: Tumor cell proliferation IC50 (CCK-8), MM.1S; conditions: Homo sapiens, MM1.S, 72 h, read-out: IC50 for inhibiting the proliferation of tumor cells, MM.1S;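 further: viability of cultured cells read by CCK-8 reagent after compound exposure, growth inhibition curves fitted to derive IC50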
[8] = tested on: Daudi cells; assay: Tumor cell proliferation IC50 (CCK-8), Daudi; conditions: Homo sapiens, read-out: IC50 for inhibiting the proliferation of tumor cells, Daudi;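 further: cell viability read with CCK-8 reagent after compound exposure of Daudi cells, IC50 derived from plotted growth inhibition curves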
Protocol: (§1) The tumor cells used herein were cultured in a cell culture medium listed in table A at 37° C. in an incubator with 5% CO2.
(§2) After the cells were treated with the compounds of the present disclosure for a period of time, the cell viability detection reagent was added to the culture medium for cell viability assessment according to the instructions provided with the CCK-8 kit. […] The growth inhibition of the compounds of the present disclosure on cells was plotted by Prism Graphpad software, and the IC50 values of the compounds of the present disclosure were calculated therefrom.

[9] = tested on: CCRF-CEM cells; assay: Tumor cell proliferation IC50 (CCK-8), CCRF-CEM; conditions: Homo sapiens, 96 h, read-out: IC50 for inhibiting the proliferation of tumor cells, CCRF-CEM;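 further: cell viability measured with CCK-8 reagent after compound treatment, IC50 taken from plotted growth inhibition curves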
Protocol: as §1, §2

SMILES | AUC(0-t) ([1]; p.o. 30 mg/kg) [ng·h/mL] | IC50 [2] [nM] | AUC(0-t) ([1]; p.o. 10 mg/kg) [ng·h/mL] | IC50 [6] [nM] | IC50 [7] [nM] | IC50 [8] [nM] | IC50 [9] [nM] | residual substrate protein level, IKZF1 [3] | residual substrate protein level, IKZF3 [4] | residual substrate protein level, GSPT1 [5]
O=C1CCC(N2Cc3cc(CC4CN(C(=O)c5ccccc5-c5ccc(Cl)cc5)C4)ccc3C2=O)C(=O)N1 (centres unmarked) [GT-03922, 3-(5-((1-(4′-chloro-[1,1′-biphenyl]-2-carbonyl)azetidin-3-yl)methyl)-1-oxoisoindolin-2-yl)piperidine-2,6-dione] | – | 160 | ≤ 500 | – | – | – | – | A (A represents a residual substrate protein level of <50%) | A (A represents a residual substrate protein level of <50%) | A (A represents a residual substrate protein level of <50%)
O=C1CCC(N2Cc3cc(CN4CCN(Cc5ccccc5-c5ccc(F)cc5)CC4)ccc3C2=O)C(=O)N1 (centres unmarked) [GT-04256, 3-(5-((4-((4′-fluoro-[1,1′-biphenyl]-2-yl)methyl)piperazin-1-yl)methyl)-1-oxoisoindolin-2-yl)piperidine-2,6-dione] | – | 1420 | ≤ 500 | – | – | – | – | A (A represents a residual substrate protein level of <50%) | A (A represents a residual substrate protein level of <50%) | A (A represents a residual substrate protein level of <50%)
O=C1CCC(N2Cc3cc(CN4CCN(C(=O)c5ccccc5-c5ccc(Cl)cc5)CC4C(F)(F)F)ccc3C2=O)C(=O)N1 (centres unmarked) [GT-05789, 3-(5-((4-(4′-chloro-[1,1′-biphenyl]-2-carbonyl)-2-(trifluoromethyl)piperazin-1-yl)methyl)-1-oxoisoindolin-2-yl)piperidine-2,6-dione] | – | 520 | – | 10 to 50 | 10 to 50 | 100 to 500 | 10 to 50 | B (B represents a residual substrate protein level of >50%) | B (B represents a residual substrate protein level of >50%) | A (A represents a residual substrate protein level of <50%)
O=C1CCC(N2Cc3cc(CN4CCN(Cc5ccccc5-c5ccc(Cl)cn5)CC4)ccc3C2=O)C(=O)N1 (centres unmarked) [GT-05860, 3-(5-((4-(2-(5-chloropyridin-2-yl)benzyl)piperazin-1-yl)methyl)-1-oxoisoindolin-2-yl)piperidine-2,6-dione] | – | 560 | – | 5 to 10 | < 5 | 10 to 50 | 5 to 10 | A (A represents a residual substrate protein level of <50%) | A (A represents a residual substrate protein level of <50%) | A (A represents a residual substrate protein level of <50%)

Further lines, with some results ahead:

AUC(0-t) ([1]; p.o. 30 mg/kg) [ng·h/mL] | IC50 [2] [nM] | AUC(0-t) ([1]; p.o. 10 mg/kg) [ng·h/mL] | IC50 [6] [nM] | IC50 [7] [nM] | IC50 [8] [nM] | IC50 [9] [nM] | SMILES | residual substrate protein level, IKZF1 [3] | residual substrate protein level, IKZF3 [4] | residual substrate protein level, GSPT1 [5]
> 500 | – | – | – | – | – | – | CC1(C)CCC(CN2CCN(Cc3cccc4c3CN(C3CCC(=O)NC3=O)C4=O)CC2)=C(c2ccc(Cl)cc2)C1 (centres unmarked) [GT-03649, 3-(4-((4-((4′-chloro-5,5-dimethyl-3,4,5,6-tetrahydro-[1,1′-biphenyl]-2-yl)methyl)piperazin-1-yl)methyl)-1-oxoisoindolin-2-yl)piperidine-2,6-dione] | – | – | –
– | 1000 | – | < 5 | < 5 | 10 to 50 | < 5 | CC1(C)CCC(CN2CCN(Cc3ccc4c(c3)CN(C3CCC(=O)NC3=O)C4=O)CC2)=C(c2cccs2)C1 (centres unmarked) [GT-05847, 3-(5-((4-((4,4-dimethyl-2-(thiophen-2-yl)cyclohex-1-en-1-yl)methyl)piperazin-1-yl)methyl)-1-oxoisoindolin-2-yl)piperidine-2,6-dione] | A (A represents a residual substrate protein level of <50%) | A (A represents a residual substrate protein level of <50%) | A (A represents a residual substrate protein level of <50%)
